In US20170291905A1, “ARGININE […] INHIBITORS AND USES THEREOF” (Epizyme, Inc., priority 2014, published 2017):
pIC50: −log10 of the molar value. Counter-ions that a name gives are not always drawn.

What follows are compounds tested against T1, full-length human PRMT1 isoform 1 (GST-tagged) (Homo sapiens, UniProt Q99873) (assay: PRMT1 biochemical assay (3H-SAM Flashplate, histone H4 36-50 peptide)). Conditions: 0.5 nM PRMT1, 30 min preincubation, 20 nM peptide.
T1 construct: GST-tagged PRMT1 was eluted with 50 mM Tris, 2 mM glutathione, pH 7.8, dialysed in buffer A and concentrated; made in house; host or cells: High Five insect cells (baculovirus)
T1 sequence (Q99873 with tags, fused parts or gaps): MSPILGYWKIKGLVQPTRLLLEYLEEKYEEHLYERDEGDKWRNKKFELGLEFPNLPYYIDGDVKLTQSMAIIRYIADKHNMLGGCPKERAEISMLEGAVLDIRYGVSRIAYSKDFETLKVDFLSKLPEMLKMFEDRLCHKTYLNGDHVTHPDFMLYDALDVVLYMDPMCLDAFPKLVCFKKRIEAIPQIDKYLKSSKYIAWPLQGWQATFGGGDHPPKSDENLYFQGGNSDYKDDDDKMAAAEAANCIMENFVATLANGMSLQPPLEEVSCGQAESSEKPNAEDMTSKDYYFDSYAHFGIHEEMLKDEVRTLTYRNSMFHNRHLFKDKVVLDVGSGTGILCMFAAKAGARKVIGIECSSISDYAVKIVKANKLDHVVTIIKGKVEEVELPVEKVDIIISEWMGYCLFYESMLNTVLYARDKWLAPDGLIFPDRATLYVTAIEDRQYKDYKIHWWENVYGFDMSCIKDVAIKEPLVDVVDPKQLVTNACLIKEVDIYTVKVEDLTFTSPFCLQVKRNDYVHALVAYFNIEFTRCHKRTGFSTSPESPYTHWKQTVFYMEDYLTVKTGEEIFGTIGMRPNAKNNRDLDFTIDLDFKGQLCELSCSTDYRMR
Description: S-adenosylmethionine (SAM), S-adenosylhomocysteine (SAH), bicine, Tween20, dimethylsulfoxide (DMSO), bovine skin gelatin (BSG), and Tris(2-carboxyethyl)phosphine hydrochloride solution (TCEP) were purchased from Sigma-Aldrich at the highest level of purity possible. ^3H-SAM was purchase from American Radiolabeled Chemicals with a specific activity of 80 Ci/mmol. 384-well streptavidin Flashplates were purchased from PerkinElmer.
Peptide representative of human histone H4 residues 36-50 was synthesized with an N-terminal linker-affinity tag motif and a C-terminal amide cap by 21st Century Biochemicals. The peptide was purified by high-performance liquid chromatography (HPLC) to greater than 95% purity and confirmed by liquid chromatography mass spectrometry (LC-MS). The sequence was Biot-Ahx-[…]-amide (SEQ ID NO.:1).
Full-length human PRMT1 isoform 1 (NM_001536.5) transcript clone was amplified from an HEK 293 cDNA library, incorporating flanking 5′ sequence encoding a FLAG tag ([…]) (SEQ ID NO.:2) fused directly to Met 1 of PRMT1. The amplified gene was subcloned into pFastBacI (Life Technologies) modified to encode an N-terminal GST tag and a TEV cleavage sequence
Recombinant baculovirus were generated according to Bac-to-Bac kit instructions (Life Technologies). Protein over-expression was accomplished by infecting exponentially growing High Five insect cell culture at 1.5×10^6 cell/ml with 1:100 ratio of virus. Infections were carried out at 27° C. for 48 hours, harvested by centrifugation, and stored at −80° C. for purification.
GST-tagged PRMT1 was eluted with 50 mM Tris, 2 mM glutathione, pH 7.8, dialysed in buffer A and concentrated to 1 mg/mL. The purity of recovered protein was 73%. Reference: Wasilko, D. J. and S. E. Lee: “TIPS: titerless infected-cells preservation and scale-up” Bioprocess J., 5 (2006), pp. 29-32.
General Procedure for PRMT1 Enzyme Assays on Peptide Substrates.
The assays were all performed in a buffer consisting of 20 mM Bicine (pH=7.6), 1 mM TCEP, 0.005% BSG, and 0.002% Tween 20, prepared on the day of use. Compounds in 100% DMSO (1 ul) were spotted into a polypropylene 384-well V-bottom plates (Greiner) using a Platemate Plus outfitted with a 384-channel head (Thermo Scientific). DMSO (1 ul) was added to Columns 11, 12, 23, 24, rows A-H for the maximum signal control and 1 ul of SAH, a known product and inhibitor of PRMT1, was added to columns 11, 12, 23, 24, rows I-P for the minimum signal control. A cocktail (40 ul) containing the PRMT1 enzyme was added by Multidrop Combi (Thermo-Fisher). The compounds were allowed to incubate with PRMT1 for 30 min at room temperature, then a cocktail (10 ul) containing SAM and peptide was added to initiate the reaction (final volume=51 ul). The final concentrations of the components were as follows: PRMT1 was 0.5 nM, ^3H-SAM was 200 nM, non-radiolabeled SAM was 1.5 uM, peptide was 20 nM, SAH in the minimum signal control wells was 1 mM, and the DMSO concentration was 2%. The assays were stopped by the addition of non-radiolabeled SAM (10 ul) to a final concentration of 300 uM, which dilutes the ^3H-SAM to a level where its incorporation into the peptide substrate is no longer detectable. 50 ul of the reaction in the 384-well polypropylene plate was then transferred to a 384-well Flashplate and the biotinylated peptides were allowed to bind to the streptavidin surface for at least 1 hour before being washed once with 0.1% Tween20 in a Biotek ELx405 plate washer. The plates were then read in a PerkinElmer TopCount plate reader to measure the quantity of ^3H-labeled peptide bound to the Flashplate surface, measured as disintegrations per minute (dpm) or alternatively, referred to as counts per minute (cpm).
Where dpm=disintegrations per minute, cmpd=signal in assay well, and min and max are the respective minimum and maximum signal controls. […]

| SMILES | pIC50 |
| --- | --- |
| CNCCN(C)Cc1c[nH]nc1C1CCC(OCCCOC)C2(CCCC2)C1 (mixture of isomers) [compound 19, N1-((3-(10-(3-methoxypropoxy)spiro[4.5]decan-7-yl)-1H-pyrazol-4-yl)methyl)-N1,N2-dimethylethane-1,2-diamine dihydrochloride] | 7.95 |
| CNCCN(C)Cc1c[nH]nc1C1CC(COCC2CC2)CC(COCC2CC2)C1 (centres unmarked) [compound 2] | 7.16 |
| CNCCN(C)Cc1c[nH]nc1[C@H]1CC[C@@]2(CCCCO2)CC1 [compound 3] | 7.87 |
| CNCCN(C)Cc1c[nH]nc1[C@H]1CC[C@]2(CCCOC2)CC1 [compound 4, N1-((3-((6s,9s)-2-oxaspiro[5.5]undecan-9-yl)-1H-pyrazol-4-yl)methyl)-N1,N2-dimethylethane-1,2-diamine] | 8.03 |
| CNCCN(C)Cc1c[nH]nc1[C@H]1CC[C@@]2(CCCOC2)CC1 [compound 5, N1-((3-((6r,9r)-2-oxaspiro[5.5]undecan-9-yl)-1H-pyrazol-4-yl)methyl)-N1,N2-dimethylethane-1,2-diamine] | 7.93 |
| CNCCN(C)Cc1c[nH]nc1C1CCC(COCC(C)C)(COCC(C)C)CC1 [compound 6] | 7.78 |
| CNCCN(C)Cc1c[nH]nc1C1CCC2(CCC(OC)CC2)CC1 (centres unmarked) [compound 9, N1-((3-(9-methoxyspiro[5.5]undecan-3-yl)-1H-pyrazol-4-yl)methyl)-N1,N2-dimethylethane-1,2-diamine] | 8.06 |
| CNCCN(C)Cc1c[nH]nc1[C@H]1CC[C@]2(CCN(CCC(C)C)C2=O)CC1 [compound 10] | 7.26 |
| CNCCN(C)Cc1c[nH]nc1[C@H]1CC[C@@]2(CCN(CCC(C)C)C2=O)CC1 [compound 11, (5r,8r)-2-isopentyl-8-(4-((methyl(2-(methylamino)ethyl)amino)methyl)-1H-pyrazol-3-yl)-2-azaspiro[4.5]decan-1-one] | 8.18 |
| CCN(C)C(=O)C1CC(c2n[nH]cc2CN(C)CCNC)CC(C(=O)NCCC(C)C)C1(C)C (centres unmarked) [compound 14, N1-ethyl-N3-isopentyl-N1,2,2-trimethyl-5-(4-((methyl(2-(methylamino)ethyl)amino)methyl)-1H-pyrazol-3-yl)cyclohexane-1,3-dicarboxamide] | < 5.00 |
| CNCCN(C)Cc1c[nH]nc1C1CCC(C)(C)[C@H](OCC(C)C)C1 (stereo partly drawn) [compound 20, ({3-[(3R)-4,4-dimethyl-3-(2-methylpropoxy)cyclohexyl]-1H-pyrazol-4-yl}methyl)(methyl)[2-(methylamino)ethyl]amine] | 7.96 |
| CCC1CC(c2n[nH]cc2CN(C)CCNC)CC(C(=O)NCCOC)C1(C)C (centres unmarked) [compound 21, 3-ethyl-N-(2-methoxyethyl)-2,2-dimethyl-5-[4-([methyl[2-(methylamino)ethyl]amino]methyl)-1H-pyrazol-3-yl]cyclohexane-1-carboxamide dihydrochloride] | 6.61 |

Results, then the compound that gave them:

| pIC50 | SMILES |
| --- | --- |
| 7.84 | CNCCN(C)Cc1c[nH]nc1[C@@H]1CC[C@@H](OCCCOC)C2(CCCC2)C1 (racemic) [compound 26, N1-((3-((7R,10R)-10-(3-methoxypropoxy)spiro[4.5]decan-7-yl)-1H-pyrazol-4-yl)methyl)-N1,N2-dimethylethane-1,2-diamine] |
| 8.18 | CNCCN(C)Cc1c[nH]nc1[C@@H]1CC[C@H](OCCCOC)C2(CCCC2)C1 (racemic) [compound 27, N1-((3-((7R,10S)-10-(3-methoxypropoxy)spiro[4.5]decan-7-yl)-1H-pyrazol-4-yl)methyl)-N1,N2-dimethylethane-1,2-diamine] |
| < 5.00 | CNCCN(C)Cc1c[nH]nc1C1C[C@@H](C(=O)N(C)CC(C)C)C(C)(C)[C@H](C(=O)N(C)CC(C)C)C1 (some centres unmarked) [compound 12] |
| < 5.00 | CNCCN(C)Cc1c[nH]nc1C1C[C@H](C(=O)NCCOC)C(C)(C)[C@H](C(=O)NCCOC)C1 (some centres unmarked) [compound 13] |
| 8.25 | CNCCN(C)Cc1c[nH]nc1C1=CCC(CF)(CF)CC1 [compound 15, N-((3-(4,4-bis(fluoromethyl)cyclohex-1-en-1-yl)-1H-pyrazol-4-yl)methyl)-N1,N2-dimethylethane-1,2-diamine] |
| 7.95 | CNCCN(C)Cc1c[nH]nc1C1=CCC(COCC(F)(F)F)CC1 (centres unmarked) [compound 16, N1,N2-dimethyl-N1-((3-(4-((2,2,2-trifluoroethoxy)methyl)cyclohex-1-en-1-yl)-1H-pyrazol-4-yl)methyl)ethane-1,2-diamine] |
| 7.88 | CCC1(CC)CC2(CCC(c3n[nH]cc3CN(C)CCNC)CC2)N(C)C1=O (centres unmarked) [compound 22, 3,3-diethyl-1-methyl-8-(4-((methyl(2-(methylamino)ethyl)amino)methyl)-1H-pyrazol-3-yl)-1-azaspiro[4.5]decan-2-one] |
| 7.29 | CNCCN(C)Cc1c[nH]nc1[C@H]1CC[C@@H](COCC(F)(F)F)CC1 [compound 23, N1,N2-dimethyl-N1-((3-((1s,4s)-4-((2,2,2-trifluoroethoxy)methyl)cyclohexyl)-1H-pyrazol-4-yl)methyl)ethane-1,2-diamine] |
| 7.91 | CNCCN(C)Cc1c[nH]nc1[C@H]1CC[C@H](COCC(F)(F)F)CC1 [compound 24, N1,N2-dimethyl-N1-((3-((1r,4r)-4-((2,2,2-trifluoroethoxy)methyl)cyclohexyl)-1H-pyrazol-4-yl)methyl)ethane-1,2-diamine] |
| 6.15 | CNCCN(C)Cc1cn(C)nc1C1CCC(C)(C)[C@@H](C(=O)NCC(C)C)C1 (some centres unmarked) [compound 25] |
| 7.88 | CNCCNCc1c[nH]nc1[C@H]1CC[C@@]2(CC1)CC(C)(C)CO2 [compound 28, N1-((3-((5s,8s)-3,3-dimethyl-1-oxaspiro[4.5]decan-8-yl)-1H-pyrazol-4-yl)methyl)-N2-methylethane-1,2-diamine] |
| 6.71 | CNCCNCc1c[nH]nc1[C@H]1CC[C@]2(CC1)CC(C)(C)CO2 [compound 29, N1-((3-((5r,8r)-3,3-dimethyl-1-oxaspiro[4.5]decan-8-yl)-1H-pyrazol-4-yl)methyl)-N2-methylethane-1,2-diamine] |
| 7.68 | CNCCN(C)Cc1c[nH]nc1C1CCC(C)(C)[C@H](COCCCOC)C1 (stereo partly drawn) [compound 30, {2-[({3-[(3R)-3-[(3-methoxypropoxy)methyl]-4,4-dimethylcyclohexyl]-1H-pyrazol-4-yl}methyl)(methyl)amino]ethyl}(methyl)amine] |
| 7.60 | CCOC[C@@H]1CC(c2n[nH]cc2CN(C)CCNC)CCC1(C)C (stereo partly drawn) [compound 31, {2-[({3-[(3R)-3-(ethoxymethyl)-4,4-dimethylcyclohexyl]-1H-pyrazol-4-yl}methyl)(methyl)amino]ethyl}(methyl)amine] |
| 7.66 | CNCCN(C)Cc1c[nH]nc1C1CCC(C)(C)[C@H](CO)C1 (stereo partly drawn) [compound 32, [(1R)-2,2-dimethyl-5-[4-({methyl[2-(methylamino)ethyl]amino}methyl)-1H-pyrazol-3-yl]cyclohexyl]methanol] |
| 7.88 | CCC1(CC)C[C@]2(CC[C@H](c3n[nH]cc3CN(C)CCNC)CC2)OC1=O [compound 33, (5s,8s)-3,3-diethyl-8-(4-((methyl(2-(methylamino)ethyl)amino)methyl)-1H-pyrazol-3-yl)-1-oxaspiro[4.5]decan-2-one] |
| 7.82 | CCC1(CC)C[C@]2(CC[C@@H](c3n[nH]cc3CN(C)CCNC)CC2)OC1=O [compound 34, (5r,8r)-3,3-diethyl-8-(4-((methyl(2-(methylamino)ethyl)amino)methyl)-1H-pyrazol-3-yl)-1-oxaspiro[4.5]decan-2-one] |
